# Biological target: not listed separately
# Experiment: Inhibition of Penicillium decumbens alpha-L-rhamnosidase using p-nitrophenyl glycoside as substrate assessed as release of p-nitrophenol by spectrometric analysis
row,Structure (SMILES),IC50
1,C[C@@H]1C[C@H](O)[C@H]2[C@@H](O)[C@@H](O)CN2C1,0.034 µM
2,C[C@@H]1[C@H](O)[C@H]2[C@@H](O)[C@@H](O)CN2C[C@@]1(C)O,21.3 µM
3,O[C@@H]1[C@@H]2[C@@H](O)[C@H](O)[C@H](O)CN2C[C@@H]1O,530 µM

# Biological target: T1, Alpha-mannosidase (Canavalia ensiformis, UniProt C0HJB3)
# T1 sequence (C0HJB3 whole entry): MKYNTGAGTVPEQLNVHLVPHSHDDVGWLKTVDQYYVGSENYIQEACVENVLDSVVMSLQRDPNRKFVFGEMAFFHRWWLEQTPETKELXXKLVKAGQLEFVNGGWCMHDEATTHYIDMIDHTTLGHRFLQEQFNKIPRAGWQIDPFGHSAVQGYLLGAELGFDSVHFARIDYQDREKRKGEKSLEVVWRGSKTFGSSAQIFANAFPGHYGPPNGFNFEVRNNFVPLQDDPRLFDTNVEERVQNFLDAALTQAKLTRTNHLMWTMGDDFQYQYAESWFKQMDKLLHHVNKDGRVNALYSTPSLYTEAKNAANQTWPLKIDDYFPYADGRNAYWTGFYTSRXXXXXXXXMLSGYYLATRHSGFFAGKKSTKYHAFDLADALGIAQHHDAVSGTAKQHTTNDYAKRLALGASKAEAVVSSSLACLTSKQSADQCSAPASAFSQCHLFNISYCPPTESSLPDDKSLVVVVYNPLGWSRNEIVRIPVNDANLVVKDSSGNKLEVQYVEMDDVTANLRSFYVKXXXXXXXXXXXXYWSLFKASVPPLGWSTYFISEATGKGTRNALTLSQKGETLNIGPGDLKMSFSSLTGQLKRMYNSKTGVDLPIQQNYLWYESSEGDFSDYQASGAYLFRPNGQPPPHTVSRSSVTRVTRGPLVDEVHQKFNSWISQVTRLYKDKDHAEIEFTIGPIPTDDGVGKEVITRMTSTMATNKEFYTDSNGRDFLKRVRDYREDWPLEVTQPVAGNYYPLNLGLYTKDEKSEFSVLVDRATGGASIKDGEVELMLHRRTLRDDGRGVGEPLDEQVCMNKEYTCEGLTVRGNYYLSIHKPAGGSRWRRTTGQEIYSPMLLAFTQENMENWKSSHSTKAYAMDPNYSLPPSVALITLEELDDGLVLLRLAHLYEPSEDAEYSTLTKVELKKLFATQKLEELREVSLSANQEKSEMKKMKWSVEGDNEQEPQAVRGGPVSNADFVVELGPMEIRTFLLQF
# Experiment: Inhibition of jack bean alpha-mannosidase using p-nitrophenyl glycoside as substrate assessed as release of p-nitrophenol by spectrometric analysis
row,Structure (SMILES),IC50
1,O[C@H]1[C@H]2[C@H](O)C[C@H](CCOCc3ccccc3)CN2C[C@H]1O,230000 nM
2,O=C(C[C@H]1CC[C@@H](O)[C@@H]2[C@H](O)[C@H](O)CN12)c1ccccc1,510 nM
3,CC(C)(C)c1ccc(CC[C@@H]2CC[C@@H](O)[C@@H]3[C@H](O)[C@H](O)CN23)cc1,3700 nM
4,CC(C)(C)c1ccc(CC[C@H]2CC[C@@H](O)[C@@H]3[C@H](O)[C@H](O)CN23)cc1,420 nM
5,CC(C)(C)c1ccc(C(=O)C[C@@H]2CC[C@@H](O)[C@@H]3[C@H](O)[C@H](O)CN23)cc1,2540 nM

# Reference: ChEMBL document CHEMBL6096649, “Enantiomeric C-6 fluorinated swainsonine derivatives as highly selective and potent inhibitors of α-mannosidase and α-l-rhamnosidase: Design, synthesis and structure-activity relationship study” (Eur J Med Chem, 2025)
